# Measured values as given in patent US20090232909A1, “Method for determining physiological effects of hemoglobin” (priority 1999, published 2009).
# Entries after “also recorded” stand apart in the source; their conditions may differ.
# How the values were obtained:
# AE1 = target: T1, AE1 (Homo sapiens, UniProt P02730); assay: SNO content of AE1 immunoprecipitates from IOV and RBC membrane extracts; format: biochemical; conditions: RBCs treated with 0.1 mM DIDS before NO
# T1 construct: immunoprecipitated AE1 with monoclonal antibodies, and measured NO in immunoprecipitates (IPs); endogenous in cells; host or cells: RBCs (fresh venous blood) and IOVs from outdated RBCs; TX-100 or NP-40 extracts
# T1 sequence (P02730 1-911): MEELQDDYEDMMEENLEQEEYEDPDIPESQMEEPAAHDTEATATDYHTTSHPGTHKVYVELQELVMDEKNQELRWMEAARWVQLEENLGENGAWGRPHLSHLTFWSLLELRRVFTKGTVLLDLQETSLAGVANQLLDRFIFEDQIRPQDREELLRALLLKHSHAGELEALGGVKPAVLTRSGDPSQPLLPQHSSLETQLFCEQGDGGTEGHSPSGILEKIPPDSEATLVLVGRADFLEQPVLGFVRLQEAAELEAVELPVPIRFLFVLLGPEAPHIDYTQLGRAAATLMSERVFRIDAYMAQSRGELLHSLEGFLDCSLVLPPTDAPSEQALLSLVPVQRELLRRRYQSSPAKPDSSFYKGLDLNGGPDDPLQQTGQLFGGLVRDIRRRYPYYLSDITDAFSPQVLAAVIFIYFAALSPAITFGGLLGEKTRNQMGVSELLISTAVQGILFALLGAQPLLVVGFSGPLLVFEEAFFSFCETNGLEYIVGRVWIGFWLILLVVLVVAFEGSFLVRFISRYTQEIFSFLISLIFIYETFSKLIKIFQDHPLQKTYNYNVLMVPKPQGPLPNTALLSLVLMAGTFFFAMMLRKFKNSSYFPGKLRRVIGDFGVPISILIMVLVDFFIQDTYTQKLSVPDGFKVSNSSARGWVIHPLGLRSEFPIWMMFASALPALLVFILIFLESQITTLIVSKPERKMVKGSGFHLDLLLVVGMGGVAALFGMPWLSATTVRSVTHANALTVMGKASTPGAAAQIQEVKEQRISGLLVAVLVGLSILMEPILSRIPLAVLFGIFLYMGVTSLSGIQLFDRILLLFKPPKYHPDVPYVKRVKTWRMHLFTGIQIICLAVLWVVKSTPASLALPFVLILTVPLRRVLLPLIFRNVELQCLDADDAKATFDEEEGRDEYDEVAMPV
# Procedure: (§1) Immunoprecipitation was carried out by incubation of TX-100 or NP-40 extracts with antibodies followed by protein G-Sepharose. We employed two monoclonal anti-AE1 antibodies (Sigma, clone BIII-136, and kindly provided by M. Telen) that recognized epitopes in the cytoplasmic domain and that produced indistinguishable results. Immune complexes were eluted with 10 mM glycine at pH 3.0, and eluates were adjusted immediately to pH 7.4 followed by photolysis/chemiluminescence. Efficiency of immunoprecipitation was confirmed by Western blotting. Binding of SNO-Hb to IOVs was assessed in 10 mM MOPS buffer, pH 7, at room temperature and 21% O2. Incubation was for 15 mins before IOVs were solubilized in 1% TX-100, and heme content was assessed spectrophotometrically. When employed, RBCs were treated for 60 mins with DIDS (0.1 mM; calculated 10-fold molar excess over AE1), then washed thoroughly to remove unreacted DIDS. RBCs were then exposed to NO (as above) or used to prepare DIDS-modified IOVs (as above).
# To assess this mechanism, we incubated IOVs with free or Sepharose-bound NO-Hb and also treated RBCs with NO(NO:heme ratio of 1:250), prepared TX-100 or NP-40 extracts of IOVs and RBC membranes, immunoprecipitated AE1 with monoclonal antibodies, and measured NO in immunoprecipitates (IPs). […] SNO was detected at negligible levels in IPs generated with a non-specific mouse IgG (FIGS. 8A-8C). […]
# IOVs = assay: Binding of SNO-Hb to IOVs from native or DIDS-treated RBCs; conditions: 10 mM MOPS, pH 7, 21% O2
# Procedure: as §1
smiles,measurement,setting,value
"O=S(=O)(O)c1cc(N=C=S)ccc1C=Cc1ccc(N=C=S)cc1S(=O)(=O)O [DIDS, 4,4′-diisothiocyanatostilbene-2,2′-disulfonic acid]",effect on SNO content of AE1 IPs from RBC membrane extracts,AE1,reduced substantially; also recorded: greatly reduced
same,SNO-Hb binding to IOVs from native vs DIDS-treated RBCs,IOVs,equal affinity
